Laboratory results as given in patent US9000159B2 (Glenmark Pharmaceuticals, S.A., priority 2009, dated 2015).

Target: T1, Human TRPA1 (Homo sapiens, UniProt O75762)
T1 construct: expressed in transfected cells; host or cells: CHO cells
Assay: 45Calcium uptake assay: inhibition of AITC induced cellular uptake of radioactive calcium
Type: cell-based
Settings: AITC (30 μM) induced 45Ca uptake, Human TRPA1 expressing CHO cells; for inhibition at 1 µM: read-out: Percentage inhibition at 1.0 μM; for inhibition at 10 µM: read-out: Percentage inhibition at 10.0 μM; for IC50: read-out: Human IC50 value (range)
Source text: The illustrative examples of the present invention are screened for TRPA1 activity according to a modified procedure described in (a) Tóth, A. et al., Life Sciences, 2003, 73, 487-498. (b) McNamara C, R. et al., Proc. Natl. Acad. Sci. U.S.A., 2007, 104, 13525-13530. The screening of the compounds can be carried out by other methods and procedures known to persons skilled in the art.
Screening for TRPA1 Antagonist Using the ^45Calcium Uptake Assay
The inhibition of TRPA1 receptor activation was measured as inhibition of allyl isothiocyanate (AITC) induced cellular uptake of radioactive calcium. Test compounds were dissolved in DMSO to prepare 10 mM stock solution and then diluted using plain medium with 0.1% BSA and 1.8 mM CaCl2 to get desired concentration. Final concentration of DMSO in the reaction was 0.5% (v/v). Human TRPA1 expressing CHO cells were grown in F-12 DMEM medium with 10% FBS, 1% penicillin-streptomycin solution, 400 μg/ml of G-418. Cells were seeded 24 h prior to the assay in 96 well plates so as to get ˜50,000 cells per well on the day of experiment. Cells were treated with test compounds for 10 min followed by addition of AITC at a final concentration of 30 μM and 5 μCi/ml ^45Ca^+2 for 3 min. Cells were washed and lysed using buffer containing 1% Triton X-100, 0.1% deoxycholate and 0.1% SDS. Radioactivity in the lysate was measured in Packard Top count after addition of liquid scintillant. Concentration response curves were plotted as a % of maximal response obtained in the absence of test antagonist. IC50 value was calculated from concentration response curve by nonlinear regression analysis using GraphPad PRISM software.

T1 sequence (O75762 whole entry): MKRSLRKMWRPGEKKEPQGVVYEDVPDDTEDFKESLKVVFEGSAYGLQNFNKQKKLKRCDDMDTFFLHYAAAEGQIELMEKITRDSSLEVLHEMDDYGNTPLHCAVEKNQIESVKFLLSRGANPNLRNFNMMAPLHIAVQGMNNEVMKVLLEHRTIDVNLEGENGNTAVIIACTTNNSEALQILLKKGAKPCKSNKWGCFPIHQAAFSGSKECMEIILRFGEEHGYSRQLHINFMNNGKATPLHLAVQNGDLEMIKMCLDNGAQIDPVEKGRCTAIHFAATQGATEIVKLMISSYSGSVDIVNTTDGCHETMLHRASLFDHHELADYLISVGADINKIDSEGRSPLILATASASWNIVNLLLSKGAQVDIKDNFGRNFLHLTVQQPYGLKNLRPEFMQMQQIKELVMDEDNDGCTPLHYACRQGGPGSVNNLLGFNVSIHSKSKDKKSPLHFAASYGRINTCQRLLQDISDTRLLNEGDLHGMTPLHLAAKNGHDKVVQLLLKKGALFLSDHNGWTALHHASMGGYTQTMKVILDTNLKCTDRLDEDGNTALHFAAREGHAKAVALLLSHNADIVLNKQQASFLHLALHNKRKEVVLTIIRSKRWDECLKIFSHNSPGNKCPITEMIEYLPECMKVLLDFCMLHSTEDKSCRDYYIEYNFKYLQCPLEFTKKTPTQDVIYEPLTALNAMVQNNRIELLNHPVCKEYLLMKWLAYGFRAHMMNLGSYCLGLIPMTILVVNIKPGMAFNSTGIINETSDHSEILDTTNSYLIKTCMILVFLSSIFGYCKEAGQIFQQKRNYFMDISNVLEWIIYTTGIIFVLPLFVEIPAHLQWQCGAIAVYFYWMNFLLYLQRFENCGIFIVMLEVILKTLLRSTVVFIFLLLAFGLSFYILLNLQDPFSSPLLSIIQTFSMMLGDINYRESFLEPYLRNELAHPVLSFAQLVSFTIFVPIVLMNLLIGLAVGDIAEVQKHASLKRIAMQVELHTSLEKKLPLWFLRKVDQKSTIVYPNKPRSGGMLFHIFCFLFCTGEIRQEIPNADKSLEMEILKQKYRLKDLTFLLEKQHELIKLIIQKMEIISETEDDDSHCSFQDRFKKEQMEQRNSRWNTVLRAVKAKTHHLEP

| Compound | inhibition at 1 µM (1.0 μM test compound) [%] | inhibition at 10 µM (10.0 μM test compound) [%] | IC50 [nM] | Percentage inhibition at 1.0 μM (1.0 μM test compound) [%] | Percentage inhibition at 10.0 μM (10.0 μM test compound) [%] |
| --- | --- | --- | --- | --- | --- |
| Cn1c(=O)c2c(cnn2CC(=O)Nc2nc(-c3cc(Cl)c(OCC(C)(C)C)c(Cl)c3)cs2)n(C)c1=O [Example 79, N-{4-[3,5-Dichloro-4-(2,2-dimethylpropoxy)phenyl]-1,3-thiazol-2-yl}-2-(4,6-dimethyl-5,7-dioxo-4,5,6,7-tetrahydro-1H-pyrazolo[4,3-d]pyrimidin-1-yl)acetamide] | 100 | 100 | < 50 | – | – |
| Cn1nc2c(c1CC(=O)Nc1nc(-c3ccc(C(F)(F)F)c(F)c3F)cs1)c(=O)n(C)c(=O)n2C [Example 62, N-{4-[2,3-difluoro-4-(trifluoromethyl)phenyl]-1,3-thiazol-2-yl}-2-(2,5,7-trimethyl-4,6-dioxo-4,5,6,7-tetrahydro-2H-pyrazolo[3,4-d]pyrimidin-3-yl)acetamide] | 90.3 | 95.8 | < 50 | – | – |
| Cn1nc2c(c1CC(=O)Nc1nc(-c3ccc(C(F)(F)F)cc3)cs1)c(=O)n(C)c(=O)n2C [Example 47, N-{4-[4-(Trifluoromethyl)phenyl]-1,3-thiazol-2-yl}-2-(2,5,7-trimethyl-4,6-dioxo-4,5,6,7-tetrahydro-2H-pyrazolo[3,4-d]pyrimidin-3-yl)acetamide] | 99 | 99.5 | < 50 | – | – |
| N-{4-[3,5-Dichloro-4-isobutoxyphenyl]-1,3-thiazol-2-yl}-2-(4,6-dimethyl-5,7-dioxo-4,5,6,7-tetrahydro-1H-pyrazolo[4,3-d]pyrimidin-1-yl)acetamide [Example 77] | – | – | 50 to 100 | 89.48 | 99.58 |
| Cn1nc2c(c1CC(=O)Nc1nc3cc(OC(F)(F)F)ccc3s1)c(=O)n(C)c(=O)n2C [Example 66, N-[5-(Trifluoromethoxy)-1,3-benzothiazol-2-yl]-2-(2,5,7-trimethyl-4,6-dioxo-4,5,6,7-tetrahydro-2H-pyrazolo[3,4-d]pyrimidin-3-yl)acetamide] | 45 | 71.5 | – | – | – |
| Cn1c(=O)c2c(ccn2CC(=O)Nc2nc(-c3cc(F)c(OCc4ccccc4C(F)(F)F)c(F)c3)cs2)n(C)c1=O [Example 20, 2-(1,3-Dimethyl-2,4-dioxo-1,2,3,4-tetrahydro-5H-pyrrolo[3,2-d]pyrimidin-5-yl)-N-{4-[3,5-difluoro-4-[2-(trifluoromethyl)benzyloxy]phenyl)-1,3-thiazol-2-yl}acetamide] | 22.6 | 67.7 | – | – | – |
| CC(C)COc1c(F)cc(-c2csc(NC(=O)Cn3ccc4c3c(=O)n(C)c(=O)n4C)n2)cc1F [Example 6, 2-(1,3-Dimethyl-2,4-dioxo-1,2,3,4-tetrahydro-5H-pyrrolo[3,2-d]pyrimidin-5-yl)-N-{4-[4-(2-methylpropoxy)-3,5-difluorophenyl]-1,3-thiazol-2-yl}acetamide] | 42.4 | 52.8 | – | – | – |
| Cn1c(=O)c2c(ccn2CC(=O)Nc2nc(-c3ccc(F)c(C(F)(F)F)c3)cs2)n(C)c1=O [Example 2, 2-(1,3-Dimethyl-2,4-dioxo-1,2,3,4-tetrahydro-5H-pyrrolo[3,2-d]pyrimidin-5-yl)-N-{4-[4-fluoro-3-(trifluoromethyl)phenyl]-1,3-thiazol-2-yl}acetamide] | 35.4 | 79.5 | – | – | – |
| Cc1cc2c(c(=O)n(C)c(=O)n2C)n1CC(=O)Nc1nc(-c2cc(F)c(OCC(C)(C)C)c(F)c2)cs1 [Example 24, N1-{4-[3,5-Difluoro-4-(2,2-dimethylpropoxy)phenyl]-1,3-thiazol-2-yl}-2-(1,3,6-trimethyl-2,4-dioxo-1,2,3,4-tetrahydro-5H-pyrrolo[3,2-d]pyrimidin-5-yl)acetamide] | 93.9 | 99.4 | < 50 | – | – |
| Cn1nc2c(c1CC(=O)Nc1nc(-c3cc(F)cc(F)c3)cs1)c(=O)n(C)c(=O)n2C [Example 52, N-[4-(3,5-Difluorophenyl)-1,3-thiazol-2-yl]-2-(2,5,7-trimethyl-4,6-dioxo-4,5,6,7-tetrahydro-2H-pyrazolo[3,4-d]pyrimidin-3-yl)acetamide] | 37.8 | 64.8 | – | – | – |
| Cn1nc2c(c1CC(=O)Nc1nc(-c3ccc(F)c(OC(F)(F)F)c3)cs1)c(=O)n(C)c(=O)n2C [Example 60, N-{4-[4-Fluoro-3-(trifluoromethoxy)phenyl]-1,3-thiazol-2-yl}-2-(2,5,7-trimethyl-4,6-dioxo-4,5,6,7-tetrahydro-2H-pyrazolo[3,4-d]pyrimidin-3-yl)acetamide] | 93.4 | 97.2 | < 50 | – | – |
| Cn1nc2c(c1CC(=O)Nc1nc(-c3cc(C(F)(F)F)ccc3F)cs1)c(=O)n(C)c(=O)n2C [Example 57, N-{4-[2-Fluoro-5-(trifluoromethyl)phenyl]-1,3-thiazol-2-yl}-2-(2,5,7-trimethyl-4,6-dioxo-4,5,6,7-tetrahydro-2H-pyrazolo[3,4-d]pyrimidin-3-yl)acetamide] | 43 | 49.8 | – | – | – |
| Cn1c(=O)c2c(cnn2CC(=O)Nc2nc(-c3cc(F)c(OCC(F)(F)F)c(F)c3)cs2)n(C)c1=O [Example 73, N-{4-[3,5-Difluoro-4-(2,2,2-trifluoroethoxy)phenyl]-1,3-thiazol-2-yl}-2-(4,6-dimethyl-5,7-dioxo-4,5,6,7-tetrahydro-1H-pyrazolo[4,3-d]pyrimidin-1-yl)acetamide] | 99.1 | 99.9 | < 50 | – | – |
| Cn1nc2c(c1CC(=O)Nc1nc(-c3cc(F)c(OC(F)F)c(F)c3)cs1)c(=O)n(C)c(=O)n2C [Example 64, N-{4-[4-(Difluoromethoxy)-3,5-difluorophenyl]-1,3-thiazol-2-yl}-2-(2,5,7-trimethyl-4,6-dioxo-4,5,6,7-tetrahydro-2H-pyrazolo[3,4-d]pyrimidin-3-yl)acetamide] | 97.8 | 98.3 | < 50 | – | – |
| CN(C)Cc1cn(CC(=O)Nc2nc(-c3cc(F)c(OCC(C)(C)C)c(F)c3)cs2)c2c(=O)n(C)c(=O)n(C)c12 [Example 39] | 4.89 | 21.1 | – | – | – |
| CC(C)COc1c(F)cc(-c2csc(NC(=O)Cn3ncc4c3c(=O)n(C)c(=O)n4C)n2)cc1F [Example 74, N-[4-(3,5-Difluoro-4-isobutoxyphenyl)-1,3-thiazol-2-yl]-2-(4,6-dimethyl-5,7-dioxo-4,5,6,7-tetrahydro-1H-pyrazolo[4,3-d]pyrimidin-1-yl)acetamide] | 92.1 | 98.8 | < 50 | – | – |
| Cn1c(=O)c2c(ccn2CC(=O)Nc2nc(-c3cc(Cl)c(OCC(C)(C)C)c(Cl)c3)cs2)n(C)c1=O [Example 13, N-{4-[3,5-Dichloro-4-(2,2-dimethylpropoxy)phenyl]-1,3-thiazol-2-yl}-2-(1,3-dimethyl-2,4-dioxo-1,2,3,4-tetrahydro-5H-pyrrolo[3,2-d]pyrimidin-5-yl)acetamide] | 86.5 | 98.8 | 50 to 100 | – | – |
| CN(C)Cc1cn(CC(=O)Nc2nc(-c3ccc(C(F)(F)F)c(F)c3)cs2)c2c(=O)n(C)c(=O)n(C)c12 [Example 38, N-{4-[3-Fluoro-4-(trifluoromethyl)phenyl]-1,3-thiazol-2-yl}-2-{7-[(dimethylamino)methyl]-1,3-dimethyl-2,4-dioxo-1,2,3,4-tetrahydro-5H-pyrrolo[3,2-d]pyrimidin-5-yl}acetamide] | 57 | 97.8 | – | – | – |
| CC(C)CCOc1c(F)cc(-c2csc(NC(=O)Cn3ncc4c3c(=O)n(C)c(=O)n4C)n2)cc1F [Example 76, N-{4-[3,5-Difluoro-4-(3-methylbutoxy)phenyl]-1,3-thiazol-2-yl}-2-(4,6-dimethyl-5,7-dioxo-4,5,6,7-tetrahydro-1H-pyrazolo[4,3-d]pyrimidin-1-yl)acetamide] | 84.3 | 95.6 | > 100 | – | – |
| Cn1c(=O)c2c(ccn2CC(=O)Nc2nc(-c3cc(F)c(OC(F)F)c(F)c3)cs2)n(C)c1=O [Example 10, N-{4-[4-(Difluoromethoxy)-3,5-difluorophenyl]-1,3-thiazol-2-yl}-2-(1,3-dimethyl-2,4-dioxo-1,2,3,4-tetrahydro-5H-pyrrolo[3,2-d]pyrimidin-5-yl)acetamide] | 91 | 95.3 | 50 to 100 | – | – |
| Cn1nc2c(c1CC(=O)Nc1nc(-c3ccc(C(F)(F)F)c(F)c3)c[nH]1)c(=O)n(C)c(=O)n2C [Example 85, N-{4-[3-Fluoro-4-(trifluoromethyl)phenyl]-1H-imidazol-2-yl]-2-(2,5,7-trimethyl-4,6-dioxo-4,5,6,7-tetrahydro-2H-pyrazolo[3,4-d]pyrimidin-3-yl)acetamide] | 44.1 | 78.2 | – | – | – |
